Measurements taken from ChEMBL document CHEMBL3779874, “Pyridones as Highly Selective, Noncovalent Inhibitors of T790M Double Mutants of EGFR” (ACS Med Chem Lett, 2016).
pEC50, pKi: −log10 of the molar value. In brackets after ≈: the same amount, converted by molar mass. Activity calls are given as the source filed them. The rule behind the calls is not given here.

Experiments:
[1] = molecular target: Epidermal growth factor receptor (Homo sapiens, UniProt P00533); experiment: Inhibition of human N-terminal GST-tagged EGFR catalytic domain (669 to 1210 residues) expressed in baculovirus expression system using Fl-EEPLYWSFPAKKK-CONH2 peptide substrate preincubated for 30 mins followed by substrate addition measured after 30 mins by Caliper Mobility Shift Assay; settings: read-out: Ki(app)
Chain of Epidermal growth factor receptor (Homo sapiens, UniProt P00533) (P00533 whole entry, the tested form may be a part): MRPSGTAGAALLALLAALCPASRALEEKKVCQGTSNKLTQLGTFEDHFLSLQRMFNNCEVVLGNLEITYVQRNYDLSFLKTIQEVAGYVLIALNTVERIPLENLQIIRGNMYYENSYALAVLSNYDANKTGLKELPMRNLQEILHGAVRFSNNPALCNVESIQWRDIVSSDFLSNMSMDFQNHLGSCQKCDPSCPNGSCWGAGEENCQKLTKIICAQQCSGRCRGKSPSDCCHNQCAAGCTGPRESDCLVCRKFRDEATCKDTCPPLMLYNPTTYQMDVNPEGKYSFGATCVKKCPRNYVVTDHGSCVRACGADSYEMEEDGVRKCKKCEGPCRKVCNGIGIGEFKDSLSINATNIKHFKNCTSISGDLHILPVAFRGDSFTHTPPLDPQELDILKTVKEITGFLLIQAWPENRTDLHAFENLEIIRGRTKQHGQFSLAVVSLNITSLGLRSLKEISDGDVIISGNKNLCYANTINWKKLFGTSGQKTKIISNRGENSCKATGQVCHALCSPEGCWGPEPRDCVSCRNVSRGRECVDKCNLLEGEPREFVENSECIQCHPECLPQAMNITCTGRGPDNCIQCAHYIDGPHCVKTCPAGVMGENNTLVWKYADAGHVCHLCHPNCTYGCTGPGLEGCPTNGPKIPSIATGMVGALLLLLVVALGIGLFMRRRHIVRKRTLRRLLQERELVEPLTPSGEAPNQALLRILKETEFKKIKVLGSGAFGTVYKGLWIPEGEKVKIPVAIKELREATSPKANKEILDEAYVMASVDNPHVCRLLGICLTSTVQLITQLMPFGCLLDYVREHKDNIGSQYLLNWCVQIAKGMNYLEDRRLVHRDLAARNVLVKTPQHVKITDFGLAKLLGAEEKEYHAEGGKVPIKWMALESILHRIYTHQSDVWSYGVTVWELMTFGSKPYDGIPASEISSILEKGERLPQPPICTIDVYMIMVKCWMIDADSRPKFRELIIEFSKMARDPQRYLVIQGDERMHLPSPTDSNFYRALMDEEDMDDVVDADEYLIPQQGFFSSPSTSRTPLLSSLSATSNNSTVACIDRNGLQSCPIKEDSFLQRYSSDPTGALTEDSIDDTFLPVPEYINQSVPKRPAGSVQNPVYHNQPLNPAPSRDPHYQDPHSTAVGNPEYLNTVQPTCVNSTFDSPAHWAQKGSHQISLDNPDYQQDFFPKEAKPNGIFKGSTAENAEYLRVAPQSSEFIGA

[2] = molecular target: T1, Epidermal growth factor receptor (Homo sapiens, UniProt P00533, L858R/T790M); experiment: Inhibition of human EGFR catalytic domain (668 to 1210 residues) T790M/L858R double mutant using Fl-EEPLYWSFPAKKK-CONH2 peptide substrate preincubated for 30 mins followed by substrate addition measured after 30 mins by Caliper Mobility Shift Assay; assay type: protein assay; settings: read-out: Ki(app)
Homo sapiens [3] = species on record: Homo sapiens; experiment: Selectivity ratio of Ki(app) for human N-terminal GST-tagged EGFR catalytic domain (669 to 1210 residues) expressed in baculovirus expression system to Ki(app) for human EGFR catalytic domain (668 to 1210 residues) T790M/L858R double mutant
H1975 = experiment: Ratio of EC50 for wild type EGFR phosphorylation in human H292 cells to EC50 for EGFR T790M/L858R double mutant phosphorylation in human H1975 cells; assay type: cell-based
[4] = Kinetic solubility of compound in pH7.4 DMSO/phosphate buffered saline after 24 hrs by chemiluminescent nitrogen detection method; assay type: physicochemical; settings: pH 7.4, read-out: Kinetic_solubility
[5] = molecular target: T1, Epidermal growth factor receptor; experiment: Inhibition of EGFR T790M/L858R double mutant phosphorylation in human H1975 cells preincubated for 1 hr followed by EGF stimulation for 8 mins by electrochemiluminescent immunoassay; assay type: cell-based
[6] = Lipophilicity, log D of compound at pH 7.4; assay type: physicochemical; settings: buffer
Homo sapiens [7] = species on record: Homo sapiens; experiment: Selectivity ratio of Ki(app) for JAK1 (unknown origin) to Ki(app) for human EGFR catalytic domain (668 to 1210 residues) T790M/L858R double mutant
Homo sapiens [8] = species on record: Homo sapiens; experiment: Selectivity ratio of Ki(app) for JAK2 (unknown origin) to Ki(app) for human EGFR catalytic domain (668 to 1210 residues) T790M/L858R double mutant
[9] = molecular target: T2, Tyrosine-protein kinase JAK2 (Homo sapiens, UniProt O60674); experiment: Inhibition of JAK2 (unknown origin); settings: read-out: Ki(app)
T2 sequence (O60674 whole entry): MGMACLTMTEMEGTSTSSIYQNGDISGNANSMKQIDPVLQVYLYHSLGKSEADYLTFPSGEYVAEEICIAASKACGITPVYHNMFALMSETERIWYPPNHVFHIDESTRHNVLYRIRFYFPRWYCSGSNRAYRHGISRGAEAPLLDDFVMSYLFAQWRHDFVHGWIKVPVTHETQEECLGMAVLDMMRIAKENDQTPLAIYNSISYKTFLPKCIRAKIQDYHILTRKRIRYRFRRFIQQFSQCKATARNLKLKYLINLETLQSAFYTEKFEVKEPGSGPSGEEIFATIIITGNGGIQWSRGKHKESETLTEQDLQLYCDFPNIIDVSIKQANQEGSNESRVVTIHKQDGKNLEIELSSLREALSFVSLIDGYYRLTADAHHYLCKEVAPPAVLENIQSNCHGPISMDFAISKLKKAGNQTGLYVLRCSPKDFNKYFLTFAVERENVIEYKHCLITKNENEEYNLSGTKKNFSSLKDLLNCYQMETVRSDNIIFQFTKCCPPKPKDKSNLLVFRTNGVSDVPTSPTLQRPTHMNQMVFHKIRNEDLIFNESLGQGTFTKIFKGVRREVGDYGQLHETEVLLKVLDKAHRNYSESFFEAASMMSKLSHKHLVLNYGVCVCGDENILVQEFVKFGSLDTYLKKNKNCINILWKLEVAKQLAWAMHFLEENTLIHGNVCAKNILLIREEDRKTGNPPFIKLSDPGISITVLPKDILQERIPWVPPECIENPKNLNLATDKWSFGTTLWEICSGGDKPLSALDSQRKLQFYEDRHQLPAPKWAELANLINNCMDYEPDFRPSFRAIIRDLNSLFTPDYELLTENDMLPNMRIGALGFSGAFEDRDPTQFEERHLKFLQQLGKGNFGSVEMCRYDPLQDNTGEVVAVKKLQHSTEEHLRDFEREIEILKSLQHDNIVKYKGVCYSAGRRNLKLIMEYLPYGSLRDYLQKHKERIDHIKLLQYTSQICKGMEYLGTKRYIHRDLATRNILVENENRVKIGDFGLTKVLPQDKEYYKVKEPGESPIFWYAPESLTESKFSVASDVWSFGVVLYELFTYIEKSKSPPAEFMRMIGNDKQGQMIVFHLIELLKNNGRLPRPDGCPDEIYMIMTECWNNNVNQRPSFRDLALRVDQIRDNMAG

[10] = molecular target: T2, Tyrosine-protein kinase JAK2; experiment: Inhibition of JAK2 (unknown origin) at 1 uM
[11] = molecular target: Tyrosine-protein kinase JAK1 (Homo sapiens, UniProt P23458); experiment: Inhibition of JAK1 (unknown origin); settings: read-out: Ki(app)
Chain of Tyrosine-protein kinase JAK1 (P23458 whole entry): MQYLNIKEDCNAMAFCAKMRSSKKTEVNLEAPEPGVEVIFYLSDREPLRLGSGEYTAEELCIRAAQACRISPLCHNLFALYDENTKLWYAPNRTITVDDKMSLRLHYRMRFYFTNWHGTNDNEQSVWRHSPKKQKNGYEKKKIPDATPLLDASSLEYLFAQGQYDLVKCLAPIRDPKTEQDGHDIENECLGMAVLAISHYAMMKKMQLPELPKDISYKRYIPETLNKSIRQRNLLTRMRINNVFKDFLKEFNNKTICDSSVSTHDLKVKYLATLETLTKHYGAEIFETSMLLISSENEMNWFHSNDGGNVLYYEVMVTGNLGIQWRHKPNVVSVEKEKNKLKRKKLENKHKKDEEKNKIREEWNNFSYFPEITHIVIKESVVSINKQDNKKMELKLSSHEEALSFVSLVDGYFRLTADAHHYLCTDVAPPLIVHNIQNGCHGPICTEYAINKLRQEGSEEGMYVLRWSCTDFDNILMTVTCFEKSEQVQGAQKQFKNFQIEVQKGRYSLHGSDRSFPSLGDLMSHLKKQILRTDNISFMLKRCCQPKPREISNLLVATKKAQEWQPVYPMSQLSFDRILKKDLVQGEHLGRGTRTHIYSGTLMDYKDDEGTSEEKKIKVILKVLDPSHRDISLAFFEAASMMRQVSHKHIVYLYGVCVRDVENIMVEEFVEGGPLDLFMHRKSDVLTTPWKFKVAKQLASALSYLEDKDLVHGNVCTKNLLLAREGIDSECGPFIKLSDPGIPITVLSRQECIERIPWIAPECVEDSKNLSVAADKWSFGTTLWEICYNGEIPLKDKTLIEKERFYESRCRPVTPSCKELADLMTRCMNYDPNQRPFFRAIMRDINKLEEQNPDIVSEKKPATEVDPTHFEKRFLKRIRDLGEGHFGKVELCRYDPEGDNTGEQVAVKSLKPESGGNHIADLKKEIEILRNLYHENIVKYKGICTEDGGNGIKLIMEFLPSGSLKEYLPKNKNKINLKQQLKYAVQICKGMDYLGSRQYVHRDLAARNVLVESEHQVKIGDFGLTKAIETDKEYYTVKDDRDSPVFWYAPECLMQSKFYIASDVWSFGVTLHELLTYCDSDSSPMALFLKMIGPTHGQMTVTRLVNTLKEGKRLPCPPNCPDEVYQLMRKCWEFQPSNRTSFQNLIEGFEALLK

Homo sapiens [12] = species on record: Homo sapiens; experiment: Selectivity ratio of Ki(app) for JAK1 (unknown origin) to Ki(app) for JAK2 (unknown origin)

Compound	pKi [1]	pKi [2]	Ratio Ki(app) (Homo sapiens [3])	also measured
COc1ccccc1N(C)c1cc[nH]c(=O)c1C(=O)Nc1ccc(N2CCN(C)CC2)cc1	< 5.60	< 5.69	1	–
COc1ccccc1Nc1cc[nH]c(=O)c1C(=O)Nc1ccc(C2CCN(C)CC2)cc1	6.20	7.82	29	Ratio EC50 (H1975): > 23; solubility kinetic at 24 h [4]: 61 µM (≈ 26.4 µg/mL); pEC50 [5]: 6.36; logD [6]: 2.7
CN1CCN(c2ccc(NC(=O)c3c(Nc4ccccc4)cc[nH]c3=O)cc2)CC1	< 5.60	6.84	> 18	–
COc1ccccc1Nc1cc[nH]c(=O)c1C(=O)Nc1ccc(N2CCN(C)CC2)nc1	< 5.60	7.11	> 33	solubility kinetic at 24 h [4]: 65 µM (≈ 28.2 µg/mL); logD [6]: 2.6
COc1ccccc1Nc1cc[nH]c(=O)c1-c1nc2c(C(C)C)ccc(C)c2[nH]1	–	7.06	27	Ratio Ki(app) (Homo sapiens [7]): 6; Ratio Ki(app) (Homo sapiens [8]): 0.3
Cc1ccccc1Nc1cc[nH]c(=O)c1C(=O)Nc1ccc(N2CCN(C)CC2)cc1	5.63	7.21	38	–
COc1ccccc1Nc1cc[nH]c(=O)c1C(N)=O	< 5.60	< 6.16	> 3.6	–
COc1ccccc1Nc1cc[nH]c(=O)c1C(=O)Nc1ccc(N2CCC(C)CC2)cc1	< 5.60	6.20	> 4.1	–
CN1CCN(c2ccc(NC(=O)c3c(Nc4cccc(Cl)c4)cc[nH]c3=O)cc2)CC1	5.60	6.81	16	–
COc1ccccc1Nc1cc[nH]c(=O)c1C(=O)Nc1ccc(N2CCN(C)CC2)cc1	5.96	7.72	58	Ratio EC50 (H1975): 5; pKi [9]: 8.05; solubility kinetic at 24 h [4]: 4 µM (≈ 1.73 µg/mL); Ratio Ki(app) (Homo sapiens [7]): 9; pEC50 [5]: 5.96; Ratio Ki(app) (Homo sapiens [8]): 0.5; logD [6]: 3.5; inhibition [10]: Active; pKi [11]: 6.76; Ratio Ki(app) (Homo sapiens [12]): 10
CN1CCN(c2ccc(NC(=O)c3c(NCCc4ccc(Cl)cc4)cc[nH]c3=O)cc2)CC1	7.43	6.58	< 1	–
CN1CCN(c2ccc(NC(=O)c3c(Nc4ccnc(N)n4)cc[nH]c3=O)cc2)CC1	6.07	8.40	213	Ratio Ki(app) (Homo sapiens [7]): 3; Ratio Ki(app) (Homo sapiens [8]): 2; inhibition [10]: Active
COc1ccccc1Nc1cc[nH]c(=O)c1C(=O)Nc1ccc(N2CCS(=O)(=O)CC2)cc1	< 5.89	7.43	> 34	–
COc1ccccc1Nc1cc[nH]c(=O)c1C(=O)Nc1ccc(N2CCN(C)CC2)c(C)c1	–	7.59	16	Ratio Ki(app) (Homo sapiens [7]): 42; Ratio Ki(app) (Homo sapiens [8]): 0.9
CN(C)c1ccc(NC(=O)c2c(NCCc3cccc(Cl)c3)cc[nH]c2=O)cc1	6.12	6.54	1	–
COc1ccccc1Nc1cc[nH]c(=O)c1C(=O)Nc1ccc(N2CCN(C)CC2)cn1	< 5.60	< 5.69	1	–

Compound	pKi [1]	pKi [2]	Ratio Ki(app) (Homo sapiens [3])	also measured
COc1ccccc1Nc1cc[nH]c(=O)c1C(=O)Nc1ccc(CN2CCN(C)CC2)cc1	5.92	7.29	22	–
CN1CCN(c2ccc(NC(=O)c3c(N)cc[nH]c3=O)cc2)CC1	< 5.60	6.46	> 7	–
CN1CCN(c2ccc(NC(=O)c3c(NCCc4ccccc4)cc[nH]c3=O)cc2)CC1	7.31	6.93	< 1	–
O=C(Nc1ccccc1)c1c(NCCc2cccc(Cl)c2)cc[nH]c1=O	5.92	6.48	2	–
CN1CCN(c2ccc(NC(=O)c3c(Nc4ccc(Cl)cc4)cc[nH]c3=O)cc2)CC1	< 5.60	6.20	> 4	–
CN1CCN(c2ccc(NC(=O)c3c(Nc4ccccn4)cc[nH]c3=O)cc2)CC1	< 5.60	6.97	> 24	–
CN1CCN(c2ccc(NC(=O)c3c(Nc4ccncc4N)cc[nH]c3=O)cc2)CC1	< 5.91	6.84	> 8	–
CN1CCN(c2ccc(NC(=O)c3c(Nc4ccccc4Cl)cc[nH]c3=O)cc2)CC1	5.83	7.09	18	–
CCc1cc(NC(=O)c2c(Nc3ccccc3OC)cc[nH]c2=O)ccc1N1CCN(C)CC1	–	7.51	> 80	Ratio Ki(app) (Homo sapiens [7]): 104; Ratio Ki(app) (Homo sapiens [8]): 4
CN1CCN(c2ccc(NC(=O)c3c(NC[C@@H](O)c4cccc(Cl)c4)cc[nH]c3=O)cc2)CC1	7.74	7.19	< 1	solubility kinetic at 24 h [4]: 11 µM (≈ 5.3 µg/mL); pEC50 [5]: 6.39
CN1CCN(c2ccc(NC(=O)c3c(Nc4ccncn4)cc[nH]c3=O)cc2)CC1	< 5.60	7.02	> 27	–
COc1ccccc1Nc1cc[nH]c(=O)c1C(=O)Nc1ccc(N2CCCN(C)CC2)cc1	6.15	7.92	57	–
CN1CCN(c2ccc(NC(=O)c3c(NCCc4cccc(Cl)c4)cc[nH]c3=O)cc2)CC1	7.37	7.18	1	–
COc1ccccc1Nc1cc[nH]c(=O)c1-c1nc2c(C(C)C)cccc2[nH]1	5.62	7.24	42	Ratio Ki(app) (Homo sapiens [7]): 2; Ratio Ki(app) (Homo sapiens [8]): 0.2
CN1CCN(c2ccc(NC(=O)c3c(NCc4ccccc4)cc[nH]c3=O)cc2)CC1	6.46	6.46	1	–
